Results from ChEMBL document CHEMBL1133291, “The discovery of non-basic atrial natriuretic peptide clearance receptor antagonists. Part 1” (Bioorg Med Chem Lett, 2000).
Numbered stars: 1 amine (or outer) side, 2 acyl side, 3 side chain; on linkers, the order of the positions; unused ones are H or OH. Square brackets hold non-standard residues; d marks the D form. Peptide text beside a SMILES is read from it. * marks the point of attachment. NH(2S-methylbutyl) = CC[C@H](C)CN*; 2Naphthoyl = O=C(c1ccc2ccccc2c1)*; X1 = O=C(Cc1ccc(N[*:1])cc1)[*:2]; PhAc = O=C(Cc1ccccc1)*; X2 = CCC[C@H](C)CN*

Experiments:
[1] = target: T1, Atrial natriuretic peptide receptor 1 (Homo sapiens, UniProt P16066); assay: Displacement of [125I]- ANP from the Atrial natriuretic peptide receptor A.; type: tissue-based, Cardiac atrium
T1 sequence (P16066 whole entry): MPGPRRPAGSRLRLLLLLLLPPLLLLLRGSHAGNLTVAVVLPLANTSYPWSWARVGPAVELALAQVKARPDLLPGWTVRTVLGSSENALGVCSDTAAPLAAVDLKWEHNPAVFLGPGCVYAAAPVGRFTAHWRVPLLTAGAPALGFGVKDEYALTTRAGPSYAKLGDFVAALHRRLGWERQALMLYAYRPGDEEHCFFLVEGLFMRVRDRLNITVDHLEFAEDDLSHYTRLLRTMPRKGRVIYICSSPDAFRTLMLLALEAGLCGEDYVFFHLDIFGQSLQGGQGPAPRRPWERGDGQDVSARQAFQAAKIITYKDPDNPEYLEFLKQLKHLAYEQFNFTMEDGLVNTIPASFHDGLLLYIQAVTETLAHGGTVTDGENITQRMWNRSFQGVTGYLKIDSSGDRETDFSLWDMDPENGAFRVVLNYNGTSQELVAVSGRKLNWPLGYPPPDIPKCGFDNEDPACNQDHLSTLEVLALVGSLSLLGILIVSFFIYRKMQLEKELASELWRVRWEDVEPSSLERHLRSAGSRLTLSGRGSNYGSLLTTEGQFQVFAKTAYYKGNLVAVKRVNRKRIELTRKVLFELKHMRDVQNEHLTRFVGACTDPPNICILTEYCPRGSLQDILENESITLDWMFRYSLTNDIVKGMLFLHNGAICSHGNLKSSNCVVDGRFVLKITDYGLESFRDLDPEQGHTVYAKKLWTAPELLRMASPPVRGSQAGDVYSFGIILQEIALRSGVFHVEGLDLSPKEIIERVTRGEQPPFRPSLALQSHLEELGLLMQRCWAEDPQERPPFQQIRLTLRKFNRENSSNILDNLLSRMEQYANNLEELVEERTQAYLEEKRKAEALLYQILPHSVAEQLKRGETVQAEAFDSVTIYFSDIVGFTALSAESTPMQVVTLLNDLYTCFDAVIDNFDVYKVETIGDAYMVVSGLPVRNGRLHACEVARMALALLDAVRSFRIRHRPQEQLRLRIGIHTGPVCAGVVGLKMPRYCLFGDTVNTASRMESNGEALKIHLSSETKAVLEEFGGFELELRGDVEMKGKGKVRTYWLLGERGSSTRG

[2] = target: T2, Atrial natriuretic peptide receptor 3 (Homo sapiens, UniProt P17342); assay: Displacement of [125I]- ANP from the Atrial Natriuretic Peptide Clearance Receptor.; type: tissue-based, Cardiac atrium
T2 sequence (P17342 whole entry): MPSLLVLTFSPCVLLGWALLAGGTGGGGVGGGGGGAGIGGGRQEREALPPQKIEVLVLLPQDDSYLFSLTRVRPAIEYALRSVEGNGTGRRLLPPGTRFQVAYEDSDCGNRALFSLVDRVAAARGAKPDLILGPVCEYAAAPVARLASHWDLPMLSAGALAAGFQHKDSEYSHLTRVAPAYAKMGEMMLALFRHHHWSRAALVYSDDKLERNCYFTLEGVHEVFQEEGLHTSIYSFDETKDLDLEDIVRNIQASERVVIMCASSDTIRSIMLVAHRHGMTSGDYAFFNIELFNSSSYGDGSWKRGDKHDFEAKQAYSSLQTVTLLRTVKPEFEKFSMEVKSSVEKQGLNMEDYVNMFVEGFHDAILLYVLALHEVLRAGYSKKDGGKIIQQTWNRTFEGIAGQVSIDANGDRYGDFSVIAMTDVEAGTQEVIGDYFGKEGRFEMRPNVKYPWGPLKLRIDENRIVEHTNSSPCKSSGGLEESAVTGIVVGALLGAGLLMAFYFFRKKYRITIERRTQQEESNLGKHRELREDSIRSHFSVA

[3] = Ratio of binding affinity for ANP-CR receptor and ANP-A receptor

SMILES	Ki [1] [nM]	Ki [2] [nM]	Selectivity [3]
CC[C@H](C)[C@@H]1NC(=O)[C@H](C)NC(=O)CNC(=O)CNC(=O)[C@H](Cc2ccccc2)NC(=O)[C@H](N)CSSC[C@H](C(=O)O)NC(=O)CNC(=O)[C@H](CC(C)C)NC(=O)CNC(=O)[C@H](CO)NC(=O)[C@H](CCC(N)=O)NC(=O)[C@H](C)NC(=O)CNC(=O)[C@H]([C@@H](C)CC)NC(=O)[C@H](CCCN=C(N)N)NC(=O)[C@H](CC(=O)O)NC1=O	0.49	0.49	–
CC[C@H](C)[C@@H]1NC(=O)[C@H](CCCNC(=N)N)NC(=O)[C@H](CC(=O)O)NC(=O)[C@H]([C@@H](C)CC)NC(=O)[C@H](CCCNC(=N)N)NC(=O)CNC(=O)CNC(=O)[C@H](Cc2ccccc2)NC(=O)[C@@H](NC(=O)[C@H](CO)NC(=O)[C@H](CO)NC(=O)[C@@H](N)CCCNC(=N)N)CSSC[C@@H](C(=O)O)NC(=O)[C@H](C)NC(=O)CNC1=O	–	1.64	–
CC[C@H](C)[C@@H]1NC(=O)[C@H](CCCN=C(N)N)NC(=O)[C@H](CC(=O)O)NC(=O)[C@H]([C@@H](C)CC)NC(=O)[C@H](CCCN=C(N)N)NC(=O)CNC(=O)CNC(=O)[C@H](Cc2ccccc2)NC(=O)[C@H](NC(=O)[C@H](CO)NC(=O)[C@H](CO)NC(=O)[C@@H](N)CCCN=C(N)N)CSSC[C@H](C(=O)O)NC(=O)[C@H](C)NC(=O)CNC1=O	> 10	–	6100
CC[C@H](C)[C@@H]1NC(=O)[C@H](CCCN=C(N)N)NC(=O)[C@H](C)NC(=O)[C@H]([C@@H](C)CC)NC(=O)[C@H](CCCN=C(N)N)NC(=O)CNC(=O)CNC(=O)[C@H](Cc2ccccc2)NC(=O)[C@H](N)CSSC[C@H](C(=O)O)NC(=O)CNC(=O)[C@H](CC(C)C)NC(=O)CNC(=O)[C@H](CO)NC(=O)[C@H](CCC(N)=O)NC(=O)[C@H](C)NC(=O)CNC1=O	87	87	–
CC[C@H](C)CNC(=O)[C@H](C)NC(=O)[C@H](CC(=O)O)NC(=O)[C@@H](NC(=O)[C@H](C)NC(=O)Cc1ccc(NC(=O)c2ccc3ccccc3c2)cc1)[C@@H](C)CC (2Naphthoyl-[X1]AIDA-{NH(2S-methylbutyl)})	65	65	–
CC[C@H](C)CNC(=O)[C@H](CCCN=C(N)N)NC(=O)[C@H](CC(=O)O)NC(=O)[C@@H](NC(=O)[C@H](C)NC(=O)Cc1ccc(NC(=O)c2ccc3ccccc3c2)cc1)[C@@H](C)CC (2Naphthoyl-[X1]AIDR-{NH(2S-methylbutyl)})	0.3	0.3	–
CC[C@H](C)CNC(=O)[C@H](CCCN=C(N)N)NC(=O)[C@H](CC(=O)O)NC(=O)[C@H](C)NC(=O)[C@H](CCCN=C(N)N)NC(=O)Cc1ccc(NC(=O)c2ccc3ccccc3c2)cc1 (2Naphthoyl-[X1]RADR-{NH(2S-methylbutyl)})	680	680	–
CC[C@H](C)CNC(=O)[C@H](CCCNC(=N)N)NC(=O)[C@H](C)NC(=O)[C@@H](NC(=O)[C@H](CCCNC(=N)N)NC(=O)Cc1ccc(NC(=O)c2ccc3ccccc3c2)cc1)[C@@H](C)CC (2Naphthoyl-[X1]RIAR-{NH(2S-methylbutyl)})	62	62	–
CC[C@H](C)CNC(=O)[C@H](C)NC(=O)[C@H](CC(=O)O)NC(=O)[C@@H](NC(=O)[C@H](CCCN=C(N)N)NC(=O)Cc1ccc(NC(=O)c2ccc3ccccc3c2)cc1)[C@@H](C)CC (2Naphthoyl-[X1]RIDA-{NH(2S-methylbutyl)})	0.4	0.4	–
CC[C@H](C)[C@H](NC(=O)[C@H](CCCNC(=N)N)NC(=O)Cc1ccc(NC(=O)c2ccc3ccccc3c2)cc1)C(=O)N[C@@H](CC(=O)O)C(=O)N[C@@H](CCCNC(=N)N)C(N)=O (2Naphthoyl-[X1]RIDR-NH2)	2600	2600	–
CC[C@H](C)CNC(=O)[C@H](CCCN=C(N)N)NC(=O)[C@H](CC(=O)O)NC(=O)[C@@H](NC(=O)[C@H](CCCN=C(N)N)NC(=O)Cc1ccc(NC(=O)c2ccc3ccccc3c2)cc1)[C@@H](C)CC (2Naphthoyl-[X1]RIDR-{NH(2S-methylbutyl)})	> 10	0.48	> 20000
CCC[C@H](C)CNC(=O)[C@H](CCCNC(=N)N)NC(=O)[C@H](CC(=O)O)NC(=O)[C@@H](NC(=O)[C@H](CCCNC(=N)N)NC(C)=O)[C@@H](C)CC (Ac-RIDR-X2)	2900	2900	–
CCC[C@H](C)CNC(=O)[C@H](CCCN=C(N)N)NC(=O)[C@H](CC(=O)O)NC(=O)[C@@H](NC(=O)[C@H](CCCN=C(N)N)NC(=O)Cc1ccccc1)[C@@H](C)CC (PhAc-RIDR-X2)	539	539	–
